Measured values reported in US10005808B2, “Crystal of alkali metal N-acetylneuraminate anhydrate, and process for producing same” (KYOWA HAKKO BIO CO., LTD., priority 2014, dated 2018).

What was measured:
[1] = Weight change (moisture absorption) under an atmosphere of 25° C. and humidity 66%; format: physicochemical; settings: humidity 66%; for weight increase due to moisture absorption (in words): up to 24 hours
Description: With respect to the crystal of NeuAc sodium salt anhydrate and the noncrystalline amorphous of NeuAc sodium salt acquired in Reference Example 1, the weight change under an atmosphere of 25° C. and humidity 66% was compared, and the results are shown in Table 3.
With respect to the crystal of NeuAc potassium salt anhydrate and the noncrystalline amorphous of NeuAc potassium salt acquired in Reference Example 2, the weight change under an atmosphere of 25° C. and humidity 66% was compared, and the results are shown in Table 10.

[2] = Measurement of degree of solubility in water (HPLC of supernatant); format: physicochemical; settings: various temperatures, FIG. 5 / FIG. 10, result in words
Description: (2) Measurement of Degree of Solubility
A crystal of NeuAc sodium salt anhydrate, a crystal of NeuAc potassium salt anhydrate, or a crystal of known NeuAc dihydrate was added to water adjusted to respective temperatures until each crystal was caused to remain undissolved and after keeping the solution for a sufficient time under stirring, the supernatant containing no crystal was collected and measured for the concentration by using the following HPLC analysis conditions.
Guard column: Shodex SUGAR SH-G ϕ6.0×50 mm
Column: SUGAR SH1011 ϕ8.0×300 mm×2 columns in series
Column temperature: 60° C.
Buffer: an aqueous 0.005 mol/L sulfuric acid solution
Flow velocity: 0.6 mL/min
Detector: UV detector (wavelength: 210 nm)
The degrees of solubility in water of the crystal of NeuAc sodium salt anhydrate obtained above and a crystal of NeuAc dihydrate are illustrated in FIG. 5.
The degrees of solubility in water of the crystal of NeuAc potassium salt anhydrate obtained above and a crystal of NeuAc dihydrate are illustrated in FIG. 10.

[3] = Degree of coloration when stored in a closed system at 60° C. (transmittance T% 430 nm); format: physicochemical
Description: (§1) With respect to the crystal of NeuAc sodium salt anhydrate and a crystal of known NeuAc dihydrate, the degree of coloration when stored in a closed system at 60° C. was compared, and the results are shown in Table 7. The degree of coloration is expressed by transmittance T % 430 nm=100×10^−A (A=Abs: 430 nm, 1 cm).
as §1, with “potassium” for “sodium”, “14.” for “7.”

[4] = pH of aqueous solution of the crystal at 100 g/L; format: physicochemical
Description: As for the pH, an aqueous solution at 100 g/L in terms of NeuAc sodium salt was measured.
As for the pH, an aqueous solution at 100 g/L in terms of NeuAc potassium salt was measured.

[5] = normal temperature / storage; cited from earlier work
[6] = normal temperature; cited from earlier work

| Structure (SMILES) | degree of solubility in water compared with crystal of known NeuAc dihydrate [2] | coloration during storage compared with crystal of known NeuAc dihydrate (in words) [3] | Transmittance T % 430 nm ([3]; elapsed time 0 days, Table 7) | Transmittance T % 430 nm ([3]; elapsed time 3 days, Table 7) | Transmittance T % 430 nm ([3]; elapsed time 6 days, Table 7) | Transmittance T % 430 nm ([3]; elapsed time 0 days, Table 14) | Transmittance T % 430 nm ([3]; elapsed time 3 days, Table 14) | Transmittance T % 430 nm ([3]; elapsed time 6 days, Table 14) | storage stability (in words) [5] | also measured |
| --- | --- | --- | --- | --- | --- | --- | --- | --- | --- | --- |
| CC(=O)N[C@H]1[C@H]([C@H](O)[C@H](O)CO)OC(O)(C(=O)[O-])C[C@@H]1O.O.O.O.[Na+] (some centres unmarked) [NeuAc sodium salt trihydrate] |  |  |  |  |  |  |  |  | high storage stability at normal temperature |  |
| CC(=O)N[C@H]1[C@H]([C@H](O)[C@H](O)CO)OC(O)(C(=O)[O-])C[C@@H]1O.[K+] (some centres unmarked) [Reference Example 2, NeuAc potassium salt, reference compound] |  |  |  |  |  |  |  |  |  | weight increase due to moisture absorption (in words) ([1]; listed as noncrystalline amorphous of NeuAc potassium salt, potassium salt): marked weight increase due to moisture absorption and deliquesced when 24 hours had passed |
| CC(=O)N[C@H]1[C@H]([C@H](O)[C@H](O)CO)O[C@](O)(C(=O)[O-])C[C@@H]1O.[Na+] [Reference Example 1, NeuAc sodium salt, reference compound] |  |  |  |  |  |  |  |  |  | weight increase due to moisture absorption (in words) ([1]; listed as noncrystalline amorphous of NeuAc sodium salt, sodium salt): marked weight increase due to moisture absorption and deliquesced when 24 hours had passed |

Further lines, with some results ahead:

| degree of solubility in water compared with crystal of known NeuAc dihydrate [2] | coloration during storage compared with crystal of known NeuAc dihydrate (in words) [3] | Transmittance T % 430 nm ([3]; elapsed time 0 days, Table 7) | Transmittance T % 430 nm ([3]; elapsed time 3 days, Table 7) | Transmittance T % 430 nm ([3]; elapsed time 6 days, Table 7) | Transmittance T % 430 nm ([3]; elapsed time 0 days, Table 14) | Transmittance T % 430 nm ([3]; elapsed time 3 days, Table 14) | Transmittance T % 430 nm ([3]; elapsed time 6 days, Table 14) | Structure (SMILES) | storage stability (in words) [5] | also measured |
| --- | --- | --- | --- | --- | --- | --- | --- | --- | --- | --- |
| excellent solubility | extremely low | 99.98% | 100.0% | 100.0% |  |  |  | CC(=O)N[C@H]1[C@H]([C@H](O)[C@H](O)CO)O[C@](O)(C(=O)[O-])C[C@@H]1O.[Na+] [Crystal of sodium salt, NeuAc sodium salt anhydrate] |  | Rate of Weight Change ([1]; elapsed time 0 h, Table 3): 0.00%; Rate of Weight Change ([1]; elapsed time 3 h, Table 3): −0.04%; Rate of Weight Change ([1]; elapsed time 7 h, Table 3): −0.02%; Rate of Weight Change ([1]; elapsed time 24 h, Table 3): −0.04%; weight increase due to moisture absorption (in words) ([1]; listed as crystal of NeuAc sodium salt anhydrate): a weight increase was not recognized; pH ([4]; aqueous solution at 100 g/L in terms of NeuAc sodium salt, listed as Example 1): 6.74; pH ([4]; aqueous solution at 100 g/L in terms of NeuAc sodium salt, listed as Example 2): 6.8 |
| excellent solubility | extremely low |  |  |  | 99.90% | 99.73% | 99.63% | CC(=O)N[C@H]1[C@H]([C@H](O)[C@H](O)CO)OC(O)(C(=O)[O-])C[C@@H]1O.[K+] (some centres unmarked) [Crystal of potassium salt, NeuAc potassium salt anhydrate] |  | Rate of Weight Change ([1]; elapsed time 0 h, Table 10): 0.00%; Rate of Weight Change ([1]; elapsed time 3 h, Table 10): 0.06%; Rate of Weight Change ([1]; elapsed time 7 h, Table 10): 0.00%; Rate of Weight Change ([1]; elapsed time 24 h, Table 10): −0.06%; weight increase due to moisture absorption (in words) ([1]; listed as crystal of NeuAc potassium salt anhydrate): a weight increase was not recognized; pH ([4]; aqueous solution at 100 g/L in terms of NeuAc potassium salt, listed as Example 4): 6.6; pH ([4]; aqueous solution at 100 g/L in terms of NeuAc potassium salt, listed as Example 5): 6.5 |
|  |  | 100.1% | 73.26% | 50.46% | 100.1% | 73.26% | 50.46% | CC(=O)N[C@H]1[C@H]([C@H](O)[C@H](O)CO)OC(O)(C(=O)O)C[C@@H]1O (some centres unmarked) [Crystal of dihydrate, N-Acetylneuraminic acid, reference compound] | gradually discolored to dark brown | degree of solubility [6]: about 100 g/L |
